In paper PMC10272112 (Nature Communications, 2023):

Assays:
Format in all cases: binding
GSE1 = experiment: Chemoproteomic competition pulldown assay (co-competed CoREST partner)
Experimental: (§1) To identify proteins directly bound by lipoic acid, we employed a chemoproteomic competition assay. Briefly, (R/S)-LA was immobilized on sepharose beads via an amidation reaction to form an affinity matrix (abbreviated as iL; Fig. 1a). This affinity matrix can be incubated with cell lysate to pull down potential LA or LM target proteins and identify these targets via bottom-up proteomics. In a competition assay, free LA or LM were incubated with lysate at different concentrations before pulling down and quantifying target proteins. […] (Fig. 1b, see “Methods” for details). […] The lysate buffer used in this assay contains 1 mM DTT to mimic the intracellular reductive milieu and to reduce lipoic acid and LM. […] Additional competition assays performed in lung adenocarcinoma cell A549 lysate also identified HDAC1, HDAC2, and HDAC6 as targets (Supplementary Fig. 1b). Amongst the three cell lines tested, HDACs were the only confidently identified targets across the 1500–3000 proteins quantified in these assays. […] We validated the results by analogous pulldown competition assays using two other affinity matrices prepared via the immobilization of either the HDAC inhibitor Quisinostat (iQ) and an analog of the class IIa HDAC inhibitor Bürli’s 31[14] (iC)[12]. We have previously shown that these affinity matrices specifically bind to the active sites of HDACs and have used them for HDACi selectivity profiling. Indeed, binding of (R/S)-LA and (R/S)-LM to HDAC1, HDAC2, HDAC3, HDAC6, and, to a lesser extent, HDAC8 was confirmed in these assays (Supplementary Fig. 1c, d). No binding to class IIa HDACs or the recently discovered common HDAC inhibitor off-target MBLAC2 was observed (Supplementary Fig. 1e)[12]. […] This observation might reflect electrostatic repulsion between the HDAC10 active site gate-keeper glutamic acid residues[15],[16] and the terminal carboxylic acid of LA.
(§2) To assess the degree of protein depletion from lysates by the affinity matrix, a second pulldown (PDPD) with fresh beads was performed using the unbound protein fraction from the vehicle control flow through. The beads were washed (1 × 1 mL of lysis buffer without inhibitors and only 0.4% Igepal, 2 × 2 mL of lysis buffer without inhibitors and only 0.2% Igepal), and captured proteins were denatured with 8 M urea buffer, alkylated with 55 mM chloroacetamide and digested with Trypsin according to standard procedures. The resulting peptides were desalted on a C18 filter plate (Sep-Pak® tC18 µElution Plate, Waters), vacuum dried, and stored at −20 °C until LC–MSMS measurement.
(§3) For the competition assays, relative binding was calculated based on the protein intensity ratio to the DMSO control for every single inhibitor concentration. EC50 values were derived from a four-parameter log-logistic regression with variable slope (constrain: bottom > 0). The obtained EC50 values were multiplied with a protein-dependent correction factor (cf), resulting in the apparent Kd value (Kd^app). The correction factor is determined by calculating the ratio of the protein intensity of two consecutive pulldowns of the vehicle control sample[13]. Targets of the inhibitors were annotated manually according to published procedures[12],[46],[47]. […] Additionally, the number of unique peptides and MSMS counts per condition were taken into account. Positive target binding across several independent experiments performed with different cell lysates further substantiated our confidence for a true positive drug-target binding event.

HMG20B = experiment: as above
Experimental: as §1, §2, §3

RCOR1 = experiment: as above
Experimental: as §1, §2, §3

RCOR3 = experiment: as above
Experimental: as §1, §2, §3

MIER1 = experiment: Chemoproteomic competition pulldown assay (HDAC interactor); details: iQ, SW620 lysate
Experimental: as §1, §2, §3

[1] = iL, A549 lysate, log10 M -4.52288
[2] = iL, A549 lysate, log10 M -5.52288
[3] = iL, A549 lysate, log10 M -6.52288
[4] = iL, A549 lysate, log10 M -7.52288
[5] = iL, A549 lysate, log10 M -8.52288
[6] = iL, SW620 lysate, log10 M -3.52288
[7] = iL, SW620 lysate, log10 M -4.52288
[8] = iL, SW620 lysate, log10 M -5.52288
[9] = iL, SW620 lysate, log10 M -6.52288
[10] = iQ, SW620 lysate, log10 M -3.52288
[11] = iQ, SW620 lysate, log10 M -4.52288
[12] = iQ, SW620 lysate, log10 M -5.52288
[13] = iQ, SW620 lysate, log10 M -6.52288

O=C(O)CCCCC1CCSS1 (racemic) [(R/S)-LA, (R/S)-lipoic acid]
relative binding vs DMSO (GSE1; iL, A549 lysate, log10 M -4): 0.002926
relative binding vs DMSO (GSE1; [1]): 0.03688
relative binding vs DMSO (GSE1; iL, A549 lysate, log10 M -5): 0.08918
relative binding vs DMSO (GSE1; [2]): 0.4136
relative binding vs DMSO (GSE1; iL, A549 lysate, log10 M -6): 0.8054
relative binding vs DMSO (GSE1; [3]): 1.293
relative binding vs DMSO (GSE1; [4]): 1.282
relative binding vs DMSO (GSE1; iL, A549 lysate, log10 M -8): 1.353
relative binding vs DMSO (GSE1; [5]): 1.278
relative binding vs DMSO (GSE1; [6]): 0
relative binding vs DMSO (GSE1; iL, SW620 lysate, log10 M -4): 0
relative binding vs DMSO (GSE1; [7]): 0
relative binding vs DMSO (GSE1; iL, SW620 lysate, log10 M -5): 0.09089
relative binding vs DMSO (GSE1; [8]): 0.3606
relative binding vs DMSO (GSE1; iL, SW620 lysate, log10 M -6): 1.287
relative binding vs DMSO (GSE1; [9]): 0.7924
relative binding vs DMSO (GSE1; iL, SW620 lysate, log10 M -7): 1.217
relative binding vs DMSO (GSE1; [10]): 0.1048
relative binding vs DMSO (GSE1; iQ, SW620 lysate, log10 M -4): 0.1152
relative binding vs DMSO (GSE1; [11]): 0.3197
relative binding vs DMSO (GSE1; iQ, SW620 lysate, log10 M -5): 0.4493
relative binding vs DMSO (GSE1; [12]): 0.5952
relative binding vs DMSO (GSE1; iQ, SW620 lysate, log10 M -6): 0.7905
relative binding vs DMSO (GSE1; [13]): 0.8177
relative binding vs DMSO (GSE1; iQ, SW620 lysate, log10 M -7): 0.7924
relative binding vs DMSO (HMG20B; iL, A549 lysate, log10 M -4): 0.09481
relative binding vs DMSO (HMG20B; [1]): 0
relative binding vs DMSO (HMG20B; iL, A549 lysate, log10 M -5): 0
relative binding vs DMSO (HMG20B; [2]): 0
relative binding vs DMSO (HMG20B; iL, A549 lysate, log10 M -6): 0.5309
relative binding vs DMSO (HMG20B; [3]): 1.1771
relative binding vs DMSO (HMG20B; [4]): 1.54
relative binding vs DMSO (HMG20B; iL, A549 lysate, log10 M -8): 1.531
relative binding vs DMSO (HMG20B; [5]): 0.9986
relative binding vs DMSO (HMG20B; [10]): 0.2338
relative binding vs DMSO (HMG20B; iQ, SW620 lysate, log10 M -4): 0.0385
relative binding vs DMSO (HMG20B; [11]): 0.4714
relative binding vs DMSO (HMG20B; iQ, SW620 lysate, log10 M -5): 0.5482
relative binding vs DMSO (HMG20B; [12]): 0.8626
relative binding vs DMSO (HMG20B; iQ, SW620 lysate, log10 M -6): 0.8649
relative binding vs DMSO (HMG20B; [13]): 1.158
relative binding vs DMSO (HMG20B; iQ, SW620 lysate, log10 M -7): 1.067
relative binding vs DMSO (RCOR1; iL, A549 lysate, log10 M -4): 0.04582
relative binding vs DMSO (RCOR1; [1]): 0.0556
relative binding vs DMSO (RCOR1; iL, A549 lysate, log10 M -5): 0.1265
relative binding vs DMSO (RCOR1; [2]): 0.344
relative binding vs DMSO (RCOR1; iL, A549 lysate, log10 M -6): 0.6862
relative binding vs DMSO (RCOR1; [3]): 1.238
relative binding vs DMSO (RCOR1; [4]): 0.8815
relative binding vs DMSO (RCOR1; iL, A549 lysate, log10 M -8): 1.065
relative binding vs DMSO (RCOR1; [5]): 1.673
relative binding vs DMSO (RCOR1; [6]): 0
relative binding vs DMSO (RCOR1; iL, SW620 lysate, log10 M -4): 0
relative binding vs DMSO (RCOR1; [7]): 0.2767
relative binding vs DMSO (RCOR1; iL, SW620 lysate, log10 M -5): 0.2629
relative binding vs DMSO (RCOR1; [8]): 0.4301
relative binding vs DMSO (RCOR1; iL, SW620 lysate, log10 M -6): 0.8481
relative binding vs DMSO (RCOR1; [9]): 1.192
relative binding vs DMSO (RCOR1; iL, SW620 lysate, log10 M -7): 0.8783
relative binding vs DMSO (RCOR1; [10]): 0.1176
relative binding vs DMSO (RCOR1; iQ, SW620 lysate, log10 M -4): 0.1659
relative binding vs DMSO (RCOR1; [11]): 0.5043
relative binding vs DMSO (RCOR1; iQ, SW620 lysate, log10 M -5): 0.4267
relative binding vs DMSO (RCOR1; [12]): 0.9917
relative binding vs DMSO (RCOR1; iQ, SW620 lysate, log10 M -6): 1.001
relative binding vs DMSO (RCOR1; [13]): 0.9723
relative binding vs DMSO (RCOR1; iQ, SW620 lysate, log10 M -7): 0.6892
relative binding vs DMSO (RCOR3; iL, A549 lysate, log10 M -4): 0
relative binding vs DMSO (RCOR3; [1]): 0
relative binding vs DMSO (RCOR3; iL, A549 lysate, log10 M -5): 0
relative binding vs DMSO (RCOR3; [2]): 0
relative binding vs DMSO (RCOR3; iL, A549 lysate, log10 M -6): 0.7701
relative binding vs DMSO (RCOR3; [3]): 1.109
relative binding vs DMSO (RCOR3; [4]): 1.217
relative binding vs DMSO (RCOR3; iL, A549 lysate, log10 M -8): 1.199
relative binding vs DMSO (RCOR3; [5]): 1.533
relative binding vs DMSO (RCOR3; [10]): 0.06142
relative binding vs DMSO (RCOR3; iQ, SW620 lysate, log10 M -4): 0.2749
relative binding vs DMSO (RCOR3; [11]): 0.55
relative binding vs DMSO (RCOR3; iQ, SW620 lysate, log10 M -5): 0.4741
relative binding vs DMSO (RCOR3; [12]): 0.7307
relative binding vs DMSO (RCOR3; iQ, SW620 lysate, log10 M -6): 0.7404
relative binding vs DMSO (RCOR3; [13]): 0.7642
relative binding vs DMSO (RCOR3; iQ, SW620 lysate, log10 M -7): 0.7542
relative binding vs DMSO (MIER1; log10 M -3.52288): 0.1271
relative binding vs DMSO (MIER1; log10 M -4): 0.313
relative binding vs DMSO (MIER1; log10 M -4.52288): 0.5121
relative binding vs DMSO (MIER1; log10 M -5): 0.4151
relative binding vs DMSO (MIER1; log10 M -5.52288): 0.7821
relative binding vs DMSO (MIER1; log10 M -6): 0.8468
relative binding vs DMSO (MIER1; log10 M -6.52288): 1.155
relative binding vs DMSO (MIER1; log10 M -7): 0.8632
